“And” between values parts separate entries of the source, which are not always exact repeats. Equal values may be shown once. Read-outs that look alike come from different tables or passages of the source.
Experiments:
hCB2R [1] = biological target: T1, hCB2R (Homo sapiens, UniProt P34972); assay: [3H]RO6957022 displacement assay; format: binding; conditions: for percentage specific [3H]RO6957022 binding (displacement): individual replicates
T1 construct: host or cells: CHO-K1 (CHOK1_hCB2bgal, PathHunter), membranes

hCB2R [2] = biological target: T1, hCB2R; assay: [3H]RO6957022 competition association assay; format: binding; conditions: for percentage specific [3H]RO6957022 binding (competition association): individual replicates
CB2R WT [3] = biological target: T2, CB2R WT (Homo sapiens, UniProt P34972); assay: [35S]GTPγS G protein activation assay, CB2R WT; format: biochemical; conditions: for Emax: CB2R WT, read-out: Emax (%); for [35S]GTPγS binding, percentage of WT / [35S]GTPγS binding, percentage of CP55,940: individual replicates
CB2R-L185^ECL2H [4] = biological target: T3, CB2R-L185^ECL2H (Homo sapiens, UniProt P34972, L185H); assay: [35S]GTPγS assay, CB2R L185H mutant; format: biochemical; conditions: L185H mutant
CB2R-L182^ECL2I = CB2R-L182^ECL2I (Homo sapiens, UniProt P34972, L182I); assay: [35S]GTPγS assay, CB2R L182I mutant; format: biochemical; conditions: L182I mutant
CB2R-E181^ECL2D = CB2R-E181^ECL2D (Homo sapiens, UniProt P34972, E181D); assay: [35S]GTPγS assay, CB2R E181D mutant; format: biochemical; conditions: E181D mutant
CB2R-Quadruple^TM1,7 [5] = biological target: T4, CB2R-Quadruple^TM1,7 (Homo sapiens, UniProt P34972, C40S/K279T/K33Q/V36I); assay: [35S]GTPγS assay, CB2R quadruple mutant; format: biochemical; conditions: for [35S]GTPγS binding, percentage of WT: QuadrupleTM1,7, individual replicates
Method: In short, transient HEK293T membrane homogenates (10 µg/well) were diluted in assay buffer (50 mM Tris-HCl (pH 7.4), 5 mM MgCl2, 150 mM NaCl, 1 mM EDTA, 0.05% BSA (w/v) and 1 mM DTT, freshly prepared every day) and were pretreated with 10 µg saponin and 1 µM GDP. For endocannabinoid samples, the membranes were additionally pretreated for 30 min with 50 µM PMSF before agonist addition. […] Basal receptor activity was determined in the presence of vehicle only (0.2% DMSO/acetonitrile). […] Filtration was performed, and filter-bound radioactivity was determined as described under [^3H]RO6957022 Competition Association Assays except for using ice-cold 50 mM Tris-HCl (pH 7.4), 5 mM MgCl2 buffer.

CB2R WT [6] = biological target: T2, CB2R WT; assay: [3H]CP55,940 displacement assay, CB2R WT; format: binding
CB2R-I110^3.29L = CB2R-I110^3.29L (Homo sapiens, UniProt P34972, I110L); assay: [3H]CP55,940 displacement assay, CB2R I110L mutant; format: binding
CB2R-L185^ECL2H [7] = biological target: T3, CB2R-L185^ECL2H; assay: [3H]CP55,940 displacement assay, CB2R L185H mutant; format: binding
CB2R-Quadruple^TM1,7 [8] = biological target: T4, CB2R-Quadruple^TM1,7; assay: [3H]CP55,940 displacement assay, CB2R quadruple mutant; format: binding; conditions: CB2R Quadruple TM1,7 mutant; <5 when curve fit not finished
hCB1R WT = hCB1R WT (Homo sapiens, UniProt P21554); assay: [35S]GTPγS G protein activation assay, CB1R WT; format: biochemical; conditions: CB1R WT; 10 µM agonist
CB1R-L359^6.51V = CB1R-L359^6.51V (Homo sapiens, UniProt P21554, L359V); assay: [35S]GTPγS assay, CB1R L359V mutant; format: biochemical; conditions: CB1R L359V; 10 µM agonist
CB1R-H270^ECL2L = CB1R-H270^ECL2L (Homo sapiens, UniProt P21554, H270L); assay: [35S]GTPγS assay, CB1R H270L mutant; format: biochemical; conditions: CB1R H270L; 10 µM agonist
CB1R I267ECL2L = CB1R I267ECL2L (Homo sapiens, UniProt P21554, I267L); assay: [35S]GTPγS assay, CB1R I267L mutant; format: biochemical; conditions: CB1R I267L; 10 µM agonist
CB1R D266ECL2E = biological target: T5, CB1R D266ECL2E (Homo sapiens, UniProt P21554, D266E); assay: [35S]GTPγS assay, CB1R D266E mutant; format: biochemical; conditions: CB1R D266E; 10 µM agonist
T5 construct: The WT CB1R and CB2R genes were subcloned into vector pcDNA3.1; HA signal peptide (N); expressed in transfected cells; host or cells: HEK293T (transient, membrane homogenates)

CB1R QuadrupleTM1,7 = assay: [35S]GTPγS assay, CB1R quadruple mutant; format: biochemical, human; conditions: CB1R Quadruple TM1,7; 10 µM agonist
[9] = at 10 µM compared to WT, read-out: Emax (%)

T2 sequence (P34972 whole entry): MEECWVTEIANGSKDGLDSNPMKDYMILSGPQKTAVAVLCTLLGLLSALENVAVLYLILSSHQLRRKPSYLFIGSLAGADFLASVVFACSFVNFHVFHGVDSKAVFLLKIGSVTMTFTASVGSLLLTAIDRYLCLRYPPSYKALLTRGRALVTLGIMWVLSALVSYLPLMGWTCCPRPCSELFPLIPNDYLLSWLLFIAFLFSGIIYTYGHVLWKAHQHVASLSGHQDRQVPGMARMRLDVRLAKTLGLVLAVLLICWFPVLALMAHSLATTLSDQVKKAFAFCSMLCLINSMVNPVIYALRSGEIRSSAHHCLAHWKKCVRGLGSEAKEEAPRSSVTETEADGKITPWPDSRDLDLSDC
T1 sequence (P34972 whole entry): as above
T3 sequence (P34972 whole entry L185H): as the sequence (P34972 whole entry) above, with L185H counted along it
T4 sequence (P34972 whole entry K33Q/V36I/C40S/K279T): as the sequence (P34972 whole entry) above, with K33Q, V36I, C40S, K279T counted along it
Sequence of CB2R-L182^ECL2I (P34972 whole entry L182I): as the sequence (P34972 whole entry) above, with L182I counted along it
Sequence of CB2R-E181^ECL2D (P34972 whole entry E181D): as the sequence (P34972 whole entry) above, with E181D counted along it
Sequence of hCB1R WT (P21554 whole entry): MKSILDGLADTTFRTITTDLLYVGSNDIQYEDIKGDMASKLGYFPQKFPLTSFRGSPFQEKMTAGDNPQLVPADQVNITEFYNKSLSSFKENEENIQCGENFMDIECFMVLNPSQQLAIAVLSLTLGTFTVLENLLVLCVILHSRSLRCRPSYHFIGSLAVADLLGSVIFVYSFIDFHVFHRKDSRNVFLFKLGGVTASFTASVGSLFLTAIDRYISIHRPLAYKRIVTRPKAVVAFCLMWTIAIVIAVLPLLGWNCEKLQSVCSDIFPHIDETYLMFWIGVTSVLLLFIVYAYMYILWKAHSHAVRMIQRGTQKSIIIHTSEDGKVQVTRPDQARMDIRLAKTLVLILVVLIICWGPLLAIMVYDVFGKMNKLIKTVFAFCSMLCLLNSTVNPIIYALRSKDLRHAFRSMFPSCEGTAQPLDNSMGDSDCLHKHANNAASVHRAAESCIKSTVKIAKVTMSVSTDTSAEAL
Sequence of CB2R-I110^3.29L (P34972 whole entry I110L): as the sequence (P34972 whole entry) above, with I110L counted along it
Sequence of CB1R-L359^6.51V (P21554 whole entry L359V): as the sequence (P21554 whole entry) above, with L359V counted along it
T5 sequence (P21554 whole entry D266E): as the sequence (P21554 whole entry) above, with D266E counted along it
Sequence of CB1R I267ECL2L (P21554 whole entry I267L): as the sequence (P21554 whole entry) above, with I267L counted along it
Sequence of CB1R-H270^ECL2L (P21554 whole entry H270L): as the sequence (P21554 whole entry) above, with H270L counted along it

SMILES: CCCCC/C=C\C/C=C\C/C=C\C/C=C\CCCC(=O)OC(CO)CO [2-AG, 2-arachidonoylglycerol]
- Ki (hCB2R [1]; CHOK1_hCB2bgal membranes, 10 °C): 97.3 nM
- percentage specific [3H]RO6957022 binding (displacement) (hCB2R [1]; log [agonist] (M) -5): -4.06% and 1.99% and 1.24%
- percentage specific [3H]RO6957022 binding (displacement) (hCB2R [1]; log [agonist] (M) -6): 9.18% and 29.61% and 23.88%
- percentage specific [3H]RO6957022 binding (displacement) (hCB2R [1]; log [agonist] (M) -7): 74.28% and 92.58% and 77.97%
- percentage specific [3H]RO6957022 binding (displacement) (hCB2R [1]; log [agonist] (M) -8): 95.23% and 106.70% and 113.70%
- Kd (hCB2R [2]; KD = koff/kon, read-out: Kinetic KD): 42.7 nM
- percentage specific [3H]RO6957022 binding (competition association) (hCB2R [2]; Time 1 min): 2.75% and 8.28% and -0.30%
- percentage specific [3H]RO6957022 binding (competition association) (hCB2R [2]; Time 3 min): 14.15% and 22.81% and 17.03%
- percentage specific [3H]RO6957022 binding (competition association) (hCB2R [2]; Time 5 min): 22.93% and 20.44% and 8.60%
- percentage specific [3H]RO6957022 binding (competition association) (hCB2R [2]; Time 7 min): 18.57% and 22.56% and 19.64%
- percentage specific [3H]RO6957022 binding (competition association) (hCB2R [2]; Time 10 min): 21.07% and 23.19% and 30.43%
- percentage specific [3H]RO6957022 binding (competition association) (hCB2R [2]; Time 20 min): 26.97% and 35.00% and 33.48%
- percentage specific [3H]RO6957022 binding (competition association) (hCB2R [2]; Time 30 min): 25.36% and 45.58% and 22.89%
- percentage specific [3H]RO6957022 binding (competition association) (hCB2R [2]; Time 45 min): 33.64% and 44.13% and 30.07%
- percentage specific [3H]RO6957022 binding (competition association) (hCB2R [2]; Time 60 min): 37.87% and 46.21% and 40.22%
- percentage specific [3H]RO6957022 binding (competition association) (hCB2R [2]; Time 90 min): 43.62% and 64.89% and 33.23%
- percentage specific [3H]RO6957022 binding (competition association) (hCB2R [2]; Time 120 min): 44.54% and 60.70% and 44.33%
- ET (engagement time) (hCB2R [2]; at 1 µM agonist, ET = 1/(kon ∙ 1 × 10-6)): 18.8 ± 3.61 s
- Emax (CB2R WT [3]; maximum effect at 10 µM compared to WT (Suppl. Table 6)): 85 ± 2%
- Emax (CB2R WT [3]; maximum effect compared to CP55,940): 93 ± 22%
- [35S]GTPγS binding, percentage of WT (CB2R WT [3]; log [ligand] (M) -5): 81.88 percentage of WT and 83.76 percentage of WT and 88.90 percentage of WT
- [35S]GTPγS binding, percentage of WT (CB2R WT [3]; log [ligand] (M) -6): 30.38 percentage of WT and 55.12 percentage of WT and 21.88 percentage of WT
- [35S]GTPγS binding, percentage of WT (CB2R WT [3]; log [ligand] (M) -7): 23.64 percentage of WT and 24.41 percentage of WT and 16.38 percentage of WT
- [35S]GTPγS binding, percentage of WT (CB2R WT [3]; log [ligand] (M) -8): 45.75 percentage of WT and 38.50 percentage of WT and 15.70 percentage of WT
- EC50 (CB2R WT [3]; [35S]GTPγS, HEK293T membranes transiently expressing CB2R WT): 1260 nM
- [35S]GTPγS binding, percentage of CP55,940 (CB2R WT [3]; log [agonist] (M) -5): 64.32% and 135.41% and 79.23%
- [35S]GTPγS binding, percentage of CP55,940 (CB2R WT [3]; log [agonist] (M) -6): 23.86% and 33.33% and 42.53%
- [35S]GTPγS binding, percentage of CP55,940 (CB2R WT [3]; log [agonist] (M) -7): 18.57% and 24.95% and 4.53%
- [35S]GTPγS binding, percentage of CP55,940 (CB2R WT [3]; log [agonist] (M) -8): 35.93% and 23.91% and 2.02%
- EC50 (CB2R-L185^ECL2H [4]; HEK293T membranes): 1260 nM
- Emax (CB2R-L185^ECL2H [4]; [9]): 171 ± 16%
- EC50 (CB2R-L182^ECL2I; <5 when curve fit not finished): > 10000 nM
- Emax (CB2R-L182^ECL2I; [9]): 15 ± 9%
- EC50 (CB2R-E181^ECL2D; <5 when curve fit not finished): > 10000 nM
- Emax (CB2R-E181^ECL2D; [9]): 22 ± 15%
- EC50 (CB2R-Quadruple^TM1,7 [5]; Quadruple TM1,7 mutant, <5 when curve fit not finished): > 10000 nM
- Emax (CB2R-Quadruple^TM1,7 [5]; Quadruple TM1,7 mutant, at 10 µM compared to WT, read-out: Emax (%)): 6 ± 4%
- [35S]GTPγS binding, percentage of WT (CB2R-Quadruple^TM1,7 [5]; log [ligand] (M) -5): 11.95 percentage of WT and 6.85 percentage of WT and -0.68 percentage of WT
- [35S]GTPγS binding, percentage of WT (CB2R-Quadruple^TM1,7 [5]; log [ligand] (M) -6): 26.61 percentage of WT and 0.18 percentage of WT
- [35S]GTPγS binding, percentage of WT (CB2R-Quadruple^TM1,7 [5]; log [ligand] (M) -7): -4.94 percentage of WT and -35.40 percentage of WT and 2.05 percentage of WT
- [35S]GTPγS binding, percentage of WT (CB2R-Quadruple^TM1,7 [5]; log [ligand] (M) -8): -0.27 percentage of WT and -23.76 percentage of WT and 1.32 percentage of WT
- Ki (CB2R WT [6]): 1580 nM
- Ki (CB2R-I110^3.29L): 1580 nM
- Ki (CB2R-L185^ECL2H [7]): 398 nM
- Ki (CB2R-Quadruple^TM1,7 [8]): > 10000 nM
- Agonist-mediated activation (hCB1R WT): 1.3 ± 0.1 fold over its basal
- Agonist-mediated activation (CB1R-L359^6.51V): 1.4 ± 0.2 fold over its basal
- Agonist-mediated activation (CB1R-H270^ECL2L): 1.5 ± 0.1 fold over its basal
- Agonist-mediated activation (CB1R I267ECL2L): 1.1 ± 0.0 fold over its basal
- Agonist-mediated activation (CB1R D266ECL2E): 1.5 ± 0.2 fold over its basal
- Agonist-mediated activation (CB1R QuadrupleTM1,7): 1.8 ± 0.1 fold over its basal

From article PMC10017709, “Structural basis of selective cannabinoid CB2 receptor activation” (Nature Communications, 2023)
